Holding throughout (assay): Mammalian kinase profiling (DSTT panel)
Common to all, as to assay type: biochemical
Conditions in all cases: 10 μM; average percentage of remaining activity

The target in experiment [1] is T1, BTK (Homo sapiens, UniProt Q06187).
T1 construct: purchased Division of Signal Transduction Therapy (DSTT), University of Dundee
The procedure: (§1) To assess the selectivity of the aminopyrazole inhibitors, remaining activity at 10 μM concentration was measured for compounds 4f, 4m, and 4y against a panel of 80 human PKs and for compound 9g against 124 human PKs. […] Compound 4m inhibited only two PKs, namely GSK3β and CDK2, at more than 80%.
(§2) Selected compounds were screened against a panel of mammalian kinases routinely run by the Division of Signal Transduction Therapy (DSTT) at the University of Dundee in duplicate at 10 μM.[32] Enzymes included in the panel and assay conditions are reported in the literature. All biochemical assays are run below the Km^app for the ATP for each enzyme, allowing comparison of inhibition across the panel.

In experiment [2] the target is T2, IR-HIS (Homo sapiens, UniProt P06213).
T2 construct: purchased Division of Signal Transduction Therapy (DSTT), University of Dundee
On the procedure:
as §1, §2

Experiment [3] concerns the target T3, Lck (Homo sapiens, UniProt P06239).
T3 construct: purchased Division of Signal Transduction Therapy (DSTT), University of Dundee
The procedure:
as §1, §2

Experiment [4] addresses T4, PDK1 (Homo sapiens, UniProt O15530).
T4 construct: purchased Division of Signal Transduction Therapy (DSTT), University of Dundee
T4 sequence (O15530 1-556): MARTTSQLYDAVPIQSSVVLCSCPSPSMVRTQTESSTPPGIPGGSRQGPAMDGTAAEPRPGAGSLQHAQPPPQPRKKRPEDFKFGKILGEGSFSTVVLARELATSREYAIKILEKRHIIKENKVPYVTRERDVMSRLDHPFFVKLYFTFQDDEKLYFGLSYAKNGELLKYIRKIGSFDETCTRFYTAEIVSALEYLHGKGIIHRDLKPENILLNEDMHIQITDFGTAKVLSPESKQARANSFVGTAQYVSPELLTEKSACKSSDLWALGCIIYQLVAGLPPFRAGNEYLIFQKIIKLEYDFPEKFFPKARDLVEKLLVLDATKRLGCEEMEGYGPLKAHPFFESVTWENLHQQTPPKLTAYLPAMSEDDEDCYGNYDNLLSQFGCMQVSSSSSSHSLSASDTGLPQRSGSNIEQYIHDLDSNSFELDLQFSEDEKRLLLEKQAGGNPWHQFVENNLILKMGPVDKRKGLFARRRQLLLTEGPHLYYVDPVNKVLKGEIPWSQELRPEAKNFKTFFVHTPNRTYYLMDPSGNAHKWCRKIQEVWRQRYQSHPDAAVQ
The procedure:
as §1, §2

In experiment [5] the target is T5, CAMK1 (Homo sapiens, UniProt Q14012).
T5 construct: purchased Division of Signal Transduction Therapy (DSTT), University of Dundee
On the procedure: as §1, §2

Experiment [6] addresses T6, SYK (Homo sapiens, UniProt P43405).
T6 construct: purchased Division of Signal Transduction Therapy (DSTT), University of Dundee
The procedure:
as §1, §2

In experiment [7] the target is T7, SGK1 (Homo sapiens, UniProt O00141).
T7 construct: purchased Division of Signal Transduction Therapy (DSTT), University of Dundee
T7 sequence (O00141 1-431): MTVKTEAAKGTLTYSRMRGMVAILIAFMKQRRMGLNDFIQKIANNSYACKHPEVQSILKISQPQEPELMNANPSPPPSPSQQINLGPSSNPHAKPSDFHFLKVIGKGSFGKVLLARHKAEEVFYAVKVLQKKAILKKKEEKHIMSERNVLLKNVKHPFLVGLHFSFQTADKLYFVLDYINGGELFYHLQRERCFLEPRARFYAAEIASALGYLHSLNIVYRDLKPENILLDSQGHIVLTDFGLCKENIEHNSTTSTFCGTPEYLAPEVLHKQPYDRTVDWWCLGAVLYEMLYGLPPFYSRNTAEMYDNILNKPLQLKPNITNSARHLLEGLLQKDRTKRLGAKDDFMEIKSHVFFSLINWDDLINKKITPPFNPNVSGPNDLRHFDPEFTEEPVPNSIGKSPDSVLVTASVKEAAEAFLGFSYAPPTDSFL
The procedure: as §1, §2

Experiment [8] deals with T8, P38g MAPK (Homo sapiens, UniProt P53778).
T8 construct: purchased Division of Signal Transduction Therapy (DSTT), University of Dundee
T8 sequence (P53778 1-367): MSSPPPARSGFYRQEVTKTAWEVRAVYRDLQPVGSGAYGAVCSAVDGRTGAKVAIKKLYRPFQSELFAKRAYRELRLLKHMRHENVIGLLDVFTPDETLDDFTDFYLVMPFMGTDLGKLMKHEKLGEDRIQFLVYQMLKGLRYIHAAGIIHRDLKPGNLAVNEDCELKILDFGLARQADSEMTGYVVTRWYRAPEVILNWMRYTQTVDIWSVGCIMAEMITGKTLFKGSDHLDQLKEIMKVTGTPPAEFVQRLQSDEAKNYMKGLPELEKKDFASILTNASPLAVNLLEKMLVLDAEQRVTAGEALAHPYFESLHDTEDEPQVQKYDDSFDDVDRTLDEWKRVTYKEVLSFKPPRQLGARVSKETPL
The procedure: as §1, §2

For experiment [9], the target named is T9, PRAK (Homo sapiens, UniProt Q8IW41).
T9 construct: purchased Division of Signal Transduction Therapy (DSTT), University of Dundee
T9 sequence (Q8IW41 1-473): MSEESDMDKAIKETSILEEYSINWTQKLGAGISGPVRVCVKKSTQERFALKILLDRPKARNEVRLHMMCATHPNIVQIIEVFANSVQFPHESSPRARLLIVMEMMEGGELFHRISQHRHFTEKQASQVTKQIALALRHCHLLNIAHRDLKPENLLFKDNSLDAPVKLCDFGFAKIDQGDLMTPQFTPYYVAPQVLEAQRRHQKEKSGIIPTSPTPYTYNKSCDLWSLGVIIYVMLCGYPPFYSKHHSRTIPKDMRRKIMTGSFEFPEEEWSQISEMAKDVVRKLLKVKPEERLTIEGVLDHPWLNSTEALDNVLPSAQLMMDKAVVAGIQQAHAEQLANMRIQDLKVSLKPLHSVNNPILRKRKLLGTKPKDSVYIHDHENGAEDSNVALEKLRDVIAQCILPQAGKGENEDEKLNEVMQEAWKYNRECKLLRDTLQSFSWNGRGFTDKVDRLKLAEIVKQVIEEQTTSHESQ
The procedure: as §1, §2

The target of experiment [10] is T10, EPH A2 (Homo sapiens, UniProt P29317).
T10 construct: purchased Division of Signal Transduction Therapy (DSTT), University of Dundee
On the procedure:
as §1, §2

The target of experiment [11] is T11, CAMKKb (Homo sapiens, UniProt Q96RR4).
T11 construct: purchased Division of Signal Transduction Therapy (DSTT), University of Dundee
The procedure: as §1, §2

Experiment [12] addresses T12, IRR (Homo sapiens, UniProt P14616).
T12 construct: purchased Division of Signal Transduction Therapy (DSTT), University of Dundee
The procedure: as §1, §2

For experiment [13], the target named is T13, MNK1 (Homo sapiens, UniProt Q9BUB5).
T13 construct: purchased Division of Signal Transduction Therapy (DSTT), University of Dundee
On the procedure:
as §1, §2

The target in experiment [14] is T14, CK1 (Homo sapiens, UniProt P48730).
T14 construct: purchased Division of Signal Transduction Therapy (DSTT), University of Dundee
The procedure:
as §1, §2

SMILES strings stand for the structures.

T1 sequence (Q06187 whole entry): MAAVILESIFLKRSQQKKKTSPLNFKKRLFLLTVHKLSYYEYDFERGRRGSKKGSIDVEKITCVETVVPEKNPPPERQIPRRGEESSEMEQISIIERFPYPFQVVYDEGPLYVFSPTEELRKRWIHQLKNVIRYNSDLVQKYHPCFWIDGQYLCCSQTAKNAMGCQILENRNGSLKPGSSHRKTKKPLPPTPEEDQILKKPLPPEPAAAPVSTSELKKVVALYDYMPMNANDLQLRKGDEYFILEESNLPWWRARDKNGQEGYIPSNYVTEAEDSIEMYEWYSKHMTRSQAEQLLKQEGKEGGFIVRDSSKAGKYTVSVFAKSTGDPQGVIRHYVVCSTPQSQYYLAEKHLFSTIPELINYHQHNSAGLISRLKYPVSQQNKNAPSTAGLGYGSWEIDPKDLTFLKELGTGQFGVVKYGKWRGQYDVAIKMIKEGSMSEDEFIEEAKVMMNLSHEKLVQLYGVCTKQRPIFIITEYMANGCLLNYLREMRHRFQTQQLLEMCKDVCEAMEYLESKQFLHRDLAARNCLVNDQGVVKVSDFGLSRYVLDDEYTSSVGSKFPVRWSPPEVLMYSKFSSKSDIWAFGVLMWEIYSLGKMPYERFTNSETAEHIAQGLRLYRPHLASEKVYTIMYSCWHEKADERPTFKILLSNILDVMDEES
T12 sequence (P14616 27-1297): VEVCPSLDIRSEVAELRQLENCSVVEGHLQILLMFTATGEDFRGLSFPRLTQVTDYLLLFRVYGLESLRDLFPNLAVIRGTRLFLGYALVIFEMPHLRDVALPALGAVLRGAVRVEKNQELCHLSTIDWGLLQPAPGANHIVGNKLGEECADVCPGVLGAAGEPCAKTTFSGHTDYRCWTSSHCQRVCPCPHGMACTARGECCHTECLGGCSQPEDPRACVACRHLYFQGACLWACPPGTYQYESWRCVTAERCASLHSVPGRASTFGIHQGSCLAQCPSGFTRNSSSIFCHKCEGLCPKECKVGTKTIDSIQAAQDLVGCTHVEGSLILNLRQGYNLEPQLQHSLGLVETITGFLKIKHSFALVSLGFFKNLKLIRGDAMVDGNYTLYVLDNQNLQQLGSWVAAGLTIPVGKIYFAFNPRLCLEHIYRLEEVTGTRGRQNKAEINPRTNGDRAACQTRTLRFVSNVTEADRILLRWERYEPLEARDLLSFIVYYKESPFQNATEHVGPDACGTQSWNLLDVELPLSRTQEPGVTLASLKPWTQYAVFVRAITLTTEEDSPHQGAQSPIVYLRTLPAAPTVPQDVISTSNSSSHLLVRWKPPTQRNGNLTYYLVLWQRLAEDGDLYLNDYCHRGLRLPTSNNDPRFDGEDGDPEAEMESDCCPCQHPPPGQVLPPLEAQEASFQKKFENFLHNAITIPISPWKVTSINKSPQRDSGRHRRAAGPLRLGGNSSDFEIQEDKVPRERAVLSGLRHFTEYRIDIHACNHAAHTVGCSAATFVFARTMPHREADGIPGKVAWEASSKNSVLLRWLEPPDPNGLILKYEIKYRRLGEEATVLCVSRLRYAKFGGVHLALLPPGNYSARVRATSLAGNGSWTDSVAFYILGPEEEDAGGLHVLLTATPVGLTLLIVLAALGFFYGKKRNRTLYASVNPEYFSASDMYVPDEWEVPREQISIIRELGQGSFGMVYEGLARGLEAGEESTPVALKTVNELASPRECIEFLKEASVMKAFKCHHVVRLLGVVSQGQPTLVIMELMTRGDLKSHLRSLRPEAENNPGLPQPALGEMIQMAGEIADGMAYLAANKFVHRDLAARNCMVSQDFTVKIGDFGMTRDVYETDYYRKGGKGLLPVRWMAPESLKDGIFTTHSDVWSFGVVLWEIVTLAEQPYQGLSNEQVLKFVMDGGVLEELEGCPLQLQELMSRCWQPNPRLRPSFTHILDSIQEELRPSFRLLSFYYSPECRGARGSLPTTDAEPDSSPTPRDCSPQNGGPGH
T10 sequence (P29317 24-976): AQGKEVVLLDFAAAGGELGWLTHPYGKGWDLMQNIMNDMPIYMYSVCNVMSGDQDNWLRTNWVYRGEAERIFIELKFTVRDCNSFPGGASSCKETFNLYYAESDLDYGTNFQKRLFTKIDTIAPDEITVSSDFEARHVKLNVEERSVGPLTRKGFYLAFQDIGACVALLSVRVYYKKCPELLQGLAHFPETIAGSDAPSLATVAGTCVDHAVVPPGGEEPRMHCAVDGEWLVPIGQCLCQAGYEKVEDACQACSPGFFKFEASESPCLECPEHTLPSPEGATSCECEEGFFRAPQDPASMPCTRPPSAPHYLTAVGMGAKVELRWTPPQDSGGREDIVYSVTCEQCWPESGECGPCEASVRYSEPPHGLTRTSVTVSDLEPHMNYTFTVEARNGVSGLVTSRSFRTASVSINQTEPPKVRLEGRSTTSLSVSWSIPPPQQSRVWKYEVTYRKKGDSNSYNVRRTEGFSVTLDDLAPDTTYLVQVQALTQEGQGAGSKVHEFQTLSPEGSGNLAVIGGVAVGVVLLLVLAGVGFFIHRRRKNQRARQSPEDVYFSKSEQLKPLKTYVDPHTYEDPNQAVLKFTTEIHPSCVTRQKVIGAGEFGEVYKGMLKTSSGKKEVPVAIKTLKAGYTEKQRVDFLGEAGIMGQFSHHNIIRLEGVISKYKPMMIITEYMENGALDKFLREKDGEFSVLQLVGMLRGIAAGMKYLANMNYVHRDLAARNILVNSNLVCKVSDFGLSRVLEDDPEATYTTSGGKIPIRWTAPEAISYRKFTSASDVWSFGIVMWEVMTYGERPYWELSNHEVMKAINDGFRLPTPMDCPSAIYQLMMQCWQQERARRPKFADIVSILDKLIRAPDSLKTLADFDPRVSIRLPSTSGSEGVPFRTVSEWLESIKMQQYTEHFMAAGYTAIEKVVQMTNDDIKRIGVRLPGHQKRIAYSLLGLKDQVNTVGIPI
T14 sequence (P48730 whole entry): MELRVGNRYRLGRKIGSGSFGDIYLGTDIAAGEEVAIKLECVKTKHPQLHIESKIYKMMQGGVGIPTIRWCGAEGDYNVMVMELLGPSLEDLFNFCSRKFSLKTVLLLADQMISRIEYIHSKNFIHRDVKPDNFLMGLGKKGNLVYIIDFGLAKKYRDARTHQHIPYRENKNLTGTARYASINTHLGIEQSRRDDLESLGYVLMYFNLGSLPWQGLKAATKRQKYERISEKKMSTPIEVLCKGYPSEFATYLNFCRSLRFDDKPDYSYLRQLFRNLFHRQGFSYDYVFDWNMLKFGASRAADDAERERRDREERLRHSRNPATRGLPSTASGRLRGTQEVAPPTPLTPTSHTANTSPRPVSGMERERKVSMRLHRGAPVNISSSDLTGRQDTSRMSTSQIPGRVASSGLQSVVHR
T5 sequence (Q14012 whole entry): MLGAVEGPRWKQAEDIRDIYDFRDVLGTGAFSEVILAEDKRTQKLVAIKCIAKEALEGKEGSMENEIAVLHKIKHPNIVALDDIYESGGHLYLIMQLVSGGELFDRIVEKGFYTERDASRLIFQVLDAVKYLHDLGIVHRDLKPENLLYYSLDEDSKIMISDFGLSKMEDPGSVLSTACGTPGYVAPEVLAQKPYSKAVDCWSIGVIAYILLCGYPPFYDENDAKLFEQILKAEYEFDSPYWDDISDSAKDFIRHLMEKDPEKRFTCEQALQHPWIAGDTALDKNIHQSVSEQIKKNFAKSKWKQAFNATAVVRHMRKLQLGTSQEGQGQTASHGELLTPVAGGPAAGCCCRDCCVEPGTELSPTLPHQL
T13 sequence (Q9BUB5 whole entry): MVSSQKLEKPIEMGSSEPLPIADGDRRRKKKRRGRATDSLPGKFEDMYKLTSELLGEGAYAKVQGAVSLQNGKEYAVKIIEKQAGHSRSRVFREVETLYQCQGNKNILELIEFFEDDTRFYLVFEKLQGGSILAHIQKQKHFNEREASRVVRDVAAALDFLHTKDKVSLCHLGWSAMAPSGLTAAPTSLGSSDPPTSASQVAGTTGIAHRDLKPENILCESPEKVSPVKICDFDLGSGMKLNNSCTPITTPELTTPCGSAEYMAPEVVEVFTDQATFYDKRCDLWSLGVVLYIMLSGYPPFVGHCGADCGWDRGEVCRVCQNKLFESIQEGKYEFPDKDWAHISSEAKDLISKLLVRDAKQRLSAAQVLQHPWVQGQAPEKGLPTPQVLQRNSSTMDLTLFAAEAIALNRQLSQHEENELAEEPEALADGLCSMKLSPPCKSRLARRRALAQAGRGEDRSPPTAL
T11 sequence (Q96RR4 whole entry): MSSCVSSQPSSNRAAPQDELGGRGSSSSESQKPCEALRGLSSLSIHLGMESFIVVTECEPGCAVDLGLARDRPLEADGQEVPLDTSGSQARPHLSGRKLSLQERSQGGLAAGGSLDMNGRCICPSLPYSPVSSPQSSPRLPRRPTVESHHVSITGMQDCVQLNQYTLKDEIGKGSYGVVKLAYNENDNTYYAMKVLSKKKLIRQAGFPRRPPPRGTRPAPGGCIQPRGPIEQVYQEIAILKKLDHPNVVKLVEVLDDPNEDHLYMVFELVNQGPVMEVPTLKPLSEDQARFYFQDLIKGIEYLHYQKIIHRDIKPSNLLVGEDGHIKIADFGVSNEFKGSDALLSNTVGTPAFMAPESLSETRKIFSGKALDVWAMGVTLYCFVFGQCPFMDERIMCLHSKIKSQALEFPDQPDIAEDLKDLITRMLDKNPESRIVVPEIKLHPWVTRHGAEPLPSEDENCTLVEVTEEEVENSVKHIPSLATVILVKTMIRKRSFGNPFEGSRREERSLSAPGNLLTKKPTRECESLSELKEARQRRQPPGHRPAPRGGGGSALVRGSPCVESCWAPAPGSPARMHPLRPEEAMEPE

Turning to `CO[C@H]1CC[C@H](NC(=O)c2n[nH]cc2NC(=O)c2ccccc2)CC1` [Compound 4f, 4-Benzamido-N-(4-methoxycyclohexyl)-1H-pyrazole-3-carboxamide], the “BTK activity compared to the control” value in [1] came out at 100%. The “IR-HIS activity compared to the control” value in experiment [2] is listed as 84%. Also, the “Lck activity compared to the control” value in [3] turned out to be 76%. In addition, the “PDK1 activity compared to the control” value in [4] was determined as 87%. Besides, in experiment [5], the “CAMK1 activity compared to the control” value came to 36%. Also, the “SYK activity compared to the control” value in [6] amounted to 78%. The “SGK1 activity compared to the control” value in [7] is given as 89%. Besides, the “P38g MAPK activity compared to the control” value in experiment [8] is 60%. Also, in [9], the “PRAK activity compared to the control” value is listed as 52%. Also, the “EPH A2 activity compared to the control” value in experiment [10] is 100%. The “CAMKKb activity compared to the control” value in experiment [11] is on record as 34%. The “IRR activity compared to the control” value in experiment [12] was 39%. In [13], the “MNK1 activity compared to the control” value came to 76%. Further, the “CK1 activity compared to the control” value in [14] turned out to be 55%.
On to `COc1cccc(OC)c1C(=O)Nc1c[nH]nc1C(=O)NC1CCC(OC)CC1` (stereo not drawn) [Compound 4m, 4-(2,6-Dimethoxybenzamido)-N-(4-methoxycyclohexyl)-1H-pyrazole-3-carboxamide], for which the “BTK activity compared to the control” value in experiment [1] is 100%. Besides, the “IR-HIS activity compared to the control” value in experiment [2] turned out to be 99%. The “Lck activity compared to the control” value in experiment [3] stood at 90%. Moreover, the “PDK1 activity compared to the control” value in experiment [4] is listed as 87%. Further, the “CAMK1 activity compared to the control” value in [5] came to 76%. Further, the “SYK activity compared to the control” value in experiment [6] is listed as 100%. Also, the “SGK1 activity compared to the control” value in [7] turned out to be 92%. Further, the “P38g MAPK activity compared to the control” value in [8] amounted to 72%. Besides, in experiment [9], the “PRAK activity compared to the control” value was 92%. Besides, the “EPH A2 activity compared to the control” value in [10] is reported as 100%. Also, the “CAMKKb activity compared to the control” value in experiment [11] is on record as 50%. Also, the “IRR activity compared to the control” value in [12] came out at 87%. In addition, the “MNK1 activity compared to the control” value in experiment [13] amounted to 81%. For the same compound, in [14], the “CK1 activity compared to the control” value is 88%.
Consider `CO[C@H]1CC[C@H](NC(=O)c2n[nH]cc2NC(=O)c2ccc(-c3ccccc3)o2)CC1` [Compound 4y, N-(4-Methoxycyclohexyl)-4-(5-phenylfuran-2-carboxamido)-1H-pyrazole-3-carboxamide], for which, in experiment [1], the “BTK activity compared to the control” value worked out at 100%. Further, the “IR-HIS activity compared to the control” value in [2] was 50%. Besides, the “Lck activity compared to the control” value in [3] came to 67%. In addition, the “PDK1 activity compared to the control” value in experiment [4] stood at 86%. Also, the “CAMK1 activity compared to the control” value in experiment [5] was 46%. In addition, in experiment [6], the “SYK activity compared to the control” value turned out to be 70%. The “SGK1 activity compared to the control” value in experiment [7] is recorded as 81%. Moreover, the “P38g MAPK activity compared to the control” value in experiment [8] was determined as 24%. For the same compound, the “PRAK activity compared to the control” value in experiment [9] came to 65%. Moreover, the “EPH A2 activity compared to the control” value in [10] is listed as 100%. The “CAMKKb activity compared to the control” value in [11] came to 27%. Besides, in experiment [12], the “IRR activity compared to the control” value is 26%. Further, the “MNK1 activity compared to the control” value in experiment [13] was 82%. Also, the “CK1 activity compared to the control” value in experiment [14] amounted to 25%.
